Assay results: publication PMC10349806 (Nature Communications, 2023)
Where a chain is given by its changes, count along the chain named. Values joined by “and” are separate entries in the source; they are usually repeats but may differ in a detail not shown here. Equal values may be shown once.

Experiments:
PfCRT variant H273A = target: T1, PfCRT variant H273A (Plasmodium falciparum, UniProt Q9N623, A220S/H273A/I356T/K76T/M74I/N326S/N75E/Q271E/R371I); assay: CQ uptake assay, oocytes expressing H273A; type: cell-based
T1 sequence (Q9N623 1-424 M74I/N75E/K76T/A220S/Q271E/H273A/N326S/I356T/R371I): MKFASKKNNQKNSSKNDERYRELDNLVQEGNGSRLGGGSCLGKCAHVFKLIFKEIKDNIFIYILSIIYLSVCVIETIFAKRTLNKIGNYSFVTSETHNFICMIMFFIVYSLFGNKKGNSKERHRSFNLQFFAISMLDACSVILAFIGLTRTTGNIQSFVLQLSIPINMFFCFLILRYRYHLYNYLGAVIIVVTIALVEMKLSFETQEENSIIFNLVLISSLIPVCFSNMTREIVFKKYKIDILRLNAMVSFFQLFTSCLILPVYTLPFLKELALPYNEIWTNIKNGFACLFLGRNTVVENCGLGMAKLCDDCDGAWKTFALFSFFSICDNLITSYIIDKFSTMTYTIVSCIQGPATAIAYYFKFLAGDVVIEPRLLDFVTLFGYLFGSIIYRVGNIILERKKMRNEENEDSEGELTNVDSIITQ
Experimental: (§1) Site-directed mutagenesis of PfCRT^Dd2 was performed as described using the megaprimer method with overlap extension[21],[54]. The primer pairs used are listed in Supplementary Table 6. Please note that a codon-optimized and oocyte-adapted version of PfCRT^Dd2 was used[22] (Supplementary Fig. 16). The resulting DNA fragment was cloned into the SP64T expression vector and verified by sequencing.
(§2) Oocytes were obtained as described previously. Briefly, adult (>2 years old) female X. laevis frogs (NASCO) were anesthetized in a cooled solution of ethyl 3-amino benzoate methanesulfonate (0.1%, w/v), followed by a surgical removal of parts of the ovary. The ovary lobes were carefully dissected and small pieces of oocytes were incubated in Ca^2+-free ND96 buffer (96 mM NaCl, 2 mM KCl, 1 mM MgCl2 buffered with 5 mM HEPES/NaOH, pH 7.5) supplemented with collagenase D (0.1%, w/v; Roche), BSA (0.5%, w/v), and 9 mm Na2HPO4 at 18 °C for 14-16 h while gentle shaking. After incubation, the oocytes were carefully washed several times with ND96 buffer (96 mM NaCl, 2 mM KCl, 1.8 mM CaCl2, 1 mM MgCl2 buffered with 5 mM HEPES/NaOH, pH 7.5) supplemented with 100 mg l^−1 gentamycin). Defolliculated and healthy-looking stage V-VI oocytes were manually selected for RNA microinjection. The RNA was generated as following: The codon-optimized sequences of PfCRT variants were cloned into the pSP64T expression vector. After vector linearization using the restriction endonucleases BamHI or SalI (New England Biolabs), transcription was performed using the in vitro SP6 mMessage mMachine Kit (Ambion)[34]. The obtained RNA was kept at −80 °C and diluted with nuclease-free water to a concentration of 0.6 μg μl^−1. Precision-bore glass capillary tubes (3.5-inch glass capillaries; Drummond Scientific Co.) were pulled on a vertical puller (P-87 Flaming/Brown micropipette puller, Sutter Instrument Co.), graduated, and placed on a microinjector (Nanoject II Auto-Nanoliter Injector, Drummond Scientific Co.). 50 nl of nuclease-free water alone (control oocytes) or 50 nl of 0.6 μg μl^−1 RNA were injected under stereomicroscopic control. Injected oocytes were incubated for 46–72 h at 18 °C with twice-daily buffer changes before usage in experiments.
Drug uptake assays were performed as described previously[21],[22],[24],[34]. […] The direction of radio-labeled drug transport is here from the mostly acidic extracellular solution (pH 4.5 or 6.0, as indicated) into the oocyte cytosol (pH ∼ 7.2), which corresponds to the efflux of drug from the acidic digestive vacuole (pH 5.2) into the parasite cytoplasm (pH 7.2). The topology of PfCRT in the oolemma is such that both the N- and C-terminus face the extracellular milieu[3],[22]. In the parasite, the N- and C-terminus face the lumen of the digestive vacuole. CQ uptake kinetics were performed by incubating oocytes in ND96 buffer adjusted to a pH of 4.5, 5.0, 5.5, or 6.0 and supplemented with 50 nM [^3H]CQ and one of 7 different CQ concentrations (10 µM, 50 µM, 100 µM, 200 µM, 300 µM, 400 µM, 500 µM CQ). The reaction was stopped at the 60 min time point, which is in the linear uptake range[22],[34] (Supplementary Fig. 17). […] The radioactivity of each sample was measured using a liquid scintillation analyzer Tri-Carb 4910 TR (PerkinElmer). Oocytes that were injected with water instead of RNA were analyzed in parallel, representing the uptake of a drug by diffusion and/or endogenous permeation pathways. […]

PfCRT variant F287A = target: T2, PfCRT variant F287A (Plasmodium falciparum, UniProt Q9N623, A220S/F287A/I356T/K76T/M74I/N326S/N75E/Q271E/R371I); assay: CQ uptake assay, oocytes expressing F287A; type: cell-based
T2 sequence (Q9N623 1-424 M74I/N75E/K76T/A220S/Q271E/F287A/N326S/I356T/R371I): T1 sequence (Q9N623 1-424 M74I/N75E/K76T/A220S/Q271E/H273A/N326S/I356T/R371I) with A273H, F287A
Experimental: as §1, §2
Drug uptake assays were performed as described previously[21],[22],[24],[34]. […] The direction of radio-labeled drug transport is here from the mostly acidic extracellular solution (pH 4.5 or 6.0, as indicated) into the oocyte cytosol (pH ∼ 7.2), which corresponds to the efflux of drug from the acidic digestive vacuole (pH 5.2) into the parasite cytoplasm (pH 7.2). The topology of PfCRT in the oolemma is such that both the N- and C-terminus face the extracellular milieu[3],[22]. In the parasite, the N- and C-terminus face the lumen of the digestive vacuole. CQ uptake kinetics were performed by incubating oocytes in ND96 buffer adjusted to a pH of 4.5, 5.0, 5.5, or 6.0 and supplemented with 50 nM [^3H]CQ and one of 7 different CQ concentrations (10 µM, 50 µM, 100 µM, 200 µM, 300 µM, 400 µM, 500 µM CQ). The reaction was stopped at the 60 min time point, which is in the linear uptake range[22],[34] (Supplementary Fig. 17). For determination of the amount of drug uptake for each oocyte, the reaction medium was removed and the oocytes were washed three times with 2 ml of ice-cold ND96 buffer. Each oocyte was individually transferred to a scintillation vial containing 5% sodium dodecyl sulfate (200 μl) for lysis. The radioactivity of each sample was measured using a liquid scintillation analyzer Tri-Carb 4910 TR (PerkinElmer). Oocytes that were injected with water instead of RNA were analyzed in parallel, representing the uptake of a drug by diffusion and/or endogenous permeation pathways. The resulting value represents the “background“ level of drug accumulation in oocytes (in-depth discussion in[22]). […]

[1] = H273A, 50 µM CQ, 1 h, mean ± SEM
[2] = pH 4.5, single replicates, Fig 1d left
[3] = pH 6.0, single replicates, Fig 1d left
[4] = F287A, 50 µM CQ, 1 h, mean ± SEM

Structure (SMILES): CCN(CC)CCCC(C)Nc1ccnc2cc(Cl)ccc12 (centres unmarked) [CQ, chloroquine]
- Activity at pH 4.5 (PfCRT variant H273A; [1]): 0.08 ± 0.04 pmol h-1 oocyte-1
- Activity at pH 6.0 (PfCRT variant H273A; [1]): 2.43 ± 0.40 pmol h-1 oocyte-1
- R-value (PfCRT variant H273A; H273A, CQ transport at pH 4.5 / pH 6.0): 0.03 ± 0.02
- H273A transport activity pH 4.5 (PfCRT variant H273A; [2]): 0.17 pmol oocyte-1 h-1 and 0.00 pmol oocyte-1 h-1 and 0.06 pmol oocyte-1 h-1
- H273A transport activity pH 6.0 (PfCRT variant H273A; [3]): 2.70 pmol oocyte-1 h-1 and 3.11 pmol oocyte-1 h-1 and 1.48 pmol oocyte-1 h-1
- Activity at pH 4.5 (PfCRT variant F287A; [4]): 1.50 ± 0.05 pmol h-1 oocyte-1
- Activity at pH 6.0 (PfCRT variant F287A; [4]): 4.71 ± 0.24 pmol h-1 oocyte-1
- R-value (PfCRT variant F287A; F287A, CQ transport at pH 4.5 / pH 6.0): 0.32 ± 0.02
- F287A transport activity pH 4.5 (PfCRT variant F287A; [2]): 1.56 pmol oocyte-1 h-1 and 1.62 pmol oocyte-1 h-1 and 1.49 pmol oocyte-1 h-1 and 1.34 pmol oocyte-1 h-1
- F287 R-value (PfCRT variant F287A; pH 4.5 vs pH 6.0, Fig 1d left): 0.32 and 0.33 and 0.38 and 0.26
- F287A transport activity pH 6.0 (PfCRT variant F287A; [3]): 4.84 pmol oocyte-1 h-1 and 4.98 pmol oocyte-1 h-1 and 3.89 pmol oocyte-1 h-1 and 5.12 pmol oocyte-1 h-1
